What was measured:
[1] = logp (HCOOH), chemicophysical data; settings: HCOOH
Amaranthus retroflexus = assay: Pre-emergence herbicidal effect; type: in vivo; settings: Dosage 320 g/ha, visual scoring after 3 weeks vs untreated controls, 100% = plants have died
From the text: (§1) 1. Pre-Emergence Herbicidal Effect and Crop Plant Compatibility Seeds of monocotyledonous or dicotyledonous weed plants or crop plants are planted in wood-fiber pots in sandy loam and covered with earth. The compounds according to the invention, formulated in the form of wettable powders (WP) or as emulsion concentrates (EC), are then applied as aqueous suspension or emulsion at a water application rate of 600 to 800 l/ha (converted) with the addition of 0.2% of wetting agent to the surface of the covering earth. The dosage of the compounds according to the invention is given in grams per hectare. Following the treatment, the pots are placed in a greenhouse and kept under good growth conditions for the test plants. The visual scoring of the damage on the test plants is carried out after an experiment time of 3 weeks in comparison with untreated controls (herbicidal effect in percent (%): 100% effect=plants have died, 0% effect=as control plants). The following abbreviations are used in the tables below: [table]

Matricaria inodora = assay: Pre-emergence herbicidal effect; type: in vivo; settings: Dosage 320 g/ha, visual scoring after 3 weeks vs untreated controls, 100% = plants have died
From the text: as §1

Polygonum convolvulus = assay: Pre-emergence herbicidal effect; type: in vivo; settings: Dosage 320 g/ha, visual scoring after 3 weeks vs untreated controls, 100% = plants have died
From the text: as §1

Setaria viridis = assay: Pre-emergence herbicidal effect; type: in vivo; settings: Dosage 320 g/ha, visual scoring after 3 weeks vs untreated controls, 100% = plants have died
From the text: as §1

Stellaria media = assay: Pre-emergence herbicidal effect; type: in vivo; settings: Dosage 320 g/ha, visual scoring after 3 weeks vs untreated controls, 100% = plants have died
From the text: as §1

Veronica persica = assay: Pre-emergence herbicidal effect; type: in vivo; settings: Dosage 320 g/ha, visual scoring after 3 weeks vs untreated controls, 100% = plants have died
From the text: as §1

Viola tricolor = assay: Pre-emergence herbicidal effect; type: in vivo; settings: Dosage 320 g/ha, visual scoring after 3 weeks vs untreated controls, 100% = plants have died
From the text: as §1

Lolium multiflorum = assay: Pre-emergence herbicidal effect; type: in vivo; settings: Dosage 320 g/ha, visual scoring after 3 weeks vs untreated controls, 100% = plants have died
From the text: as §1

Row | Compound | logp (HCOOH) [1] | also measured
1 | Cc1ccc2c(c1)C(Nc1ncc(I)c(N)n1)C(C)C2 (mixture of isomers) [Example 1.87] | wax-like; logp (HCOOH): 1.37; 1H-NMR (CDCl3, 400 MHZ, δ in ppm): 1.25 (d, 3H, CH3); | 
2 | Cc1nc(NC2CCOc3ccc(C(C)C)cc32)nc(N)c1C#N (racemic) [Example 1.27] | solid, m.p.: 158.8° C.; logp (HCOOH): 2.51; 1H-NMR (CDCl3, 400 MHZ, δ in ppm): 1.15 | 
3 | N#Cc1c(N)nc(NC2CCCc3ccccc32)nc1C(F)(F)F (racemic) [Example 1.29] | solid; m.p.: 205.8° C.; logp (HCOOH): 3.43; 1H-NMR (CDCl3, 400 MHZ, δ in ppm): 1.85 | 
4 | Cc1nc(NC2CCCc3ccccc32)nc(N)c1[N+](=O)[O-] (racemic) [Example 1.124] |  | Pre-emergence herbicidal effect AMARE (Amaranthus retroflexus): 100%; Pre-emergence herbicidal effect MATIN (Matricaria inodora): 90%; Pre-emergence herbicidal effect POLCO (Polygonum convolvulus): 90%; Pre-emergence herbicidal effect SETVI (Setaria viridis): 80%; Pre-emergence herbicidal effect STEME (Stellaria media): 100%; Pre-emergence herbicidal effect VERPE (Veronica persica): 100%; Pre-emergence herbicidal effect VIOTR (Viola tricolor): 100%
5 | COC(=O)c1cc(N)nc(NC2CCCc3ccccc32)n1 (racemic) [Example 1.212] | wax-like; logp (HCOOH): 2.54; 1H-NMR (CDCl3, 400 MHZ, δ in ppm): 1.80-2.10 (m, | 
6 | N#Cc1cnc(NC2CCc3cc(Cl)ccc32)nc1N (racemic) [Example 1.216] | wax-like; logp (HCOOH): 2.18; 1H-NMR (CDCl3, 400 MHZ, δ in ppm): 1.80 (m, 1H, 1H | 
7 | Cc1nc(NC2CCc3cc(Cl)ccc32)nc(N)c1C#N (racemic) [Example 1.217] | wax-like; logp (HCOOH): 2.21; 1H-NMR (CDCl3, 400 MHZ, δ in ppm): 1.80 (m, 1H, 1H | 
8 | Cc1nc(NC2(C)CCCc3ccccc32)nc(N)c1C#N (racemic) [Example 1.224] | wax-like; logp (HCOOH): 3.37; 1H-NMR (CDCl3, 400 MHZ, δ in ppm): 1.80 (m, 1H, 1H | 
9 | CCc1ccc2c(c1)C(Nc1ncc(C(F)(F)F)c(N)n1)CCO2 (racemic) [Example 1.238] | wax-like; logp (HCOOH): 2.02; 1H-NMR (CDCl3, 400 MHZ, δ in ppm): 1.15 (t, 3H, CH3); | 
10 | COc1ccc2c(c1)C(Nc1ncc(C(F)(F)F)c(N)n1)CCO2 (racemic) [Example 1.239] | wax-like; logp (HCOOH): 1.46 | 
11 | CC1(C)CC(Nc2ncc(C(F)(F)F)c(N)n2)c2cc(F)c(Cl)cc2O1 (racemic) [Example 1.241] | wax-like; logp (HCOOH): 2.83; 1H-NMR (CDCl3, 400 MHZ, δ in ppm): 1.30 (s, 3H, CH3); | 
12 | CC1Cc2ccc(F)cc2C1Nc1ncc(C(F)(F)F)c(N)n1 (racemic) [Example 1.243] | wax-like; logp (HCOOH): 1.93; 1H-NMR (CDCl3, 400 MHZ, δ in ppm): 0.95 (d, 3H, CH3); | 
13 | Cc1cccc2c1CCC2Nc1ncc(C(F)(F)F)c(N)n1 (racemic) [Example 1.254] | wax-like; logp (HCOOH): 1.75; 1H-NMR (CDCl3, 400 MHZ, δ in ppm): 2.10 (s, 3H, | 
14 | Cc1cc(C)c2c(c1)C(Nc1ncc(C#N)c(N)n1)CCC2 (racemic) [Example 1.271] | wax-like; logp (HCOOH): 2.60; 1H-NMR (CDCl3, 400 MHZ, δ in ppm): 1.85 (m, 3H, 3H | 
15 | Cc1ccc2c(c1)[C@H](Nc1nccc(N)n1)[C@@H](C)C2 [Example 1.38] | wax-like; logp (HCOOH): 1.25; 1H-NMR (CDCl3, 400 MHZ, δ in ppm): 1.25 (m, 3H, CH3); | 
16 | C[Si](C)(C)C#Cc1cnc(N[C@@H]2CCCc3ccccc32)nc1N [Example 1.39] | wax-like; logp (HCOOH): 1.86; 1H-NMR (CDCl3, 400 MHZ, δ in ppm): 0.25 (s, 9H, CH3); | 
17 | Cc1ccc2c(c1)[C@H](Nc1nc(C)cc(N)n1)[C@@H](C)C2 [Example 1.41] | wax-like; logp (HCOOH): 1.12; 1H-NMR (DMSO, 400 MHZ, δ in ppm): 1.15 (d, 3H, CH3); | 
18 | Cc1ccc2c(c1)[C@H](Nc1ncc(C)c(N)n1)[C@@H](C)C2 [Example 1.51] |  | Pre-emergence herbicidal effect LOLMU (Lolium multiflorum): 100%; Pre-emergence herbicidal effect MATIN (Matricaria inodora): 100%; Pre-emergence herbicidal effect STEME (Stellaria media): 100%; Pre-emergence herbicidal effect VERPE (Veronica persica): 100%
19 | Cc1ccc2c(c1)[C@H](Nc1nc(N)c(C#N)c(C(C)C)n1)[C@@H](C)C2 [Example 1.64] | wax-like; logp (HCOOH): 3.90; 1H-NMR (CDCl3, 400 MHZ, δ in ppm): 1.25 (m, 9H, | 
20 | CC(C)c1nc(N[C@@H]2CCCc3ccccc32)nc(N)c1C#N [Example 1.66] | wax-like; logp (HCOOH): 3.34; 1H-NMR (CDCl3, 400 MHZ, δ in ppm): 1.25 (m, 6H, | 
21 | Nc1cc(Cl)nc(N[C@@H]2CCCc3ccccc32)n1 [Example 1.76] |  | Pre-emergence herbicidal effect AMARE (Amaranthus retroflexus): 90%; Pre-emergence herbicidal effect MATIN (Matricaria inodora): 100%; Pre-emergence herbicidal effect STEME (Stellaria media): 100%; Pre-emergence herbicidal effect VERPE (Veronica persica): 100%
22 | Cc1ccc2c(c1)[C@H](Nc1nc(N)c(C#N)c(-c3ccccc3C)n1)[C@@H](C)C2 [Example 1.77] | solid; logp (HCOOH): 3.83; 1H-NMR (CDCl3, 400 MHZ, δ in ppm): 1.25 (m, 3H, CH3); | 
